US20240335395A1, “COMPOSITIONS AND METHODS FOR PREVENTING AND/OR TREATING DISEASE ASSOCIATED WITH IL-23 EXPRESSION” (ALLSPIM, priority 2021, published 2024)

Columns and labels:
Solubility in water = type: physicochemical
IL-23 = IL-23 gene expression in RA-patient synovial cells (RT-qPCR); type: cell-based, human; settings: 2 h
Description: Synovial fluid was freshly collected from 20 patients with rheumatoid arthritis (RA) by arthrocentesis. At two hours after treatment or not with 2,4-D, RA-patient synovial cells were directly lysed using TRIzol reagent (Invitrogen, USA) followed by RNA extraction according to the manufacturer's protocol. Finally, RNA was dissolved in 10 μL DEPC-treated water, quantified on a NanoDrop 2000 spectrophotometer (Thermo Scientific Inc., USA), and reverse-transcribed using the Super Script III First-Strand Synthesis System for RT-PCR kit (Thermo Scientific, USA) according to the manufacturer's protocol. PCR was performed in duplicate using SYBR Green qPCR master mix (Takara Biomedical Technology Co., Ltd, Dalian, China) on an ABI 7500 Real-Time PCR System (Thermo, USA). The cycling program was as follows: denaturation at 95° C. for 15 s, 40 cycles of 95° C. for 15 s and extension at 60° C. for 60 s, followed by melt curve generation. The ΔΔCT method was used to quantify relative mRNA levels as described in Example 1 above. The primer sequences specific for human IL-17 genes (hu-IL-17 Forward: 5′-[…]-3′; hu-IL-17 Reverse: 5′-GGCACTTTGCCTCCCAGAT-3′) (SEQ ID NOs 8 and 9, respectively) and IL-23 (see Example 1, above) were used.

[1] = system: laser-induced choroidal neovascularization (CNV); assay: Laser-induced CNV in rats, CNV surface on lectin-labelled RPE-choroid flat-mounts; type: in vivo, rat; settings: intravitreous injection
Description: Animals. All experiments were performed in accordance with the European Communities Council Directive 86/609/EEC and approved by local ethical committees (#2541-2015110210279792 v3). Six- to eight-week-old male Long Evans rats from the Janvier Breeding Center (Le Genest-Saint-Isle, France) were used to create a rat model of choroidal neovascularization (CNV) used as a model of human wet macular degeneration. Laser-induced CNV. After anesthesia and dilation of the pupils, coverslips were positioned on the cornea as a contact glass. […] Animals were sacrificed at 7 days (n=6 per group- and at 16 days (n=6 per group). RPE-choroid flat-mounts and CNV quantifications. Two days after FA examination (time necessary for fluorescein elimination), eyes were enucleated, fixed in 4% PFA for 15 min at room temperature and sectioned at the limbus; the cornea and lens were discarded. The retina was separated from the RPE-choroid complex. Eight radial incisions were made on the RPE-choroid, which was then flat-mounted and post-fixed with acetone for 15 min at −20° C. After washing with 0.1% Triton x100 in PBS, FITC-GSL I-Isolectin B4 (1:200, Vector, AbCys, Paris, France) was applied over night at […] Images of the CNV were captured with a digital video camera coupled to a computer system on an Olympus fluorescence microscope. […]

IL-17 = assay: IL-17A production in anti-CD3/CD28-stimulated mouse spleen cells (ELISA); type: cell-based; settings: for production and release of IL-17 in supernatant: 72 h
Description: Briefly, before the experiment, 48-well plates were coated with 150 μl/well hamster anti-mouse CD3 (Clone 145-2C11, NA/LE, BD PHM, USA) at a concentration of 10 μg/ml and incubated overnight at 4° C. The next day, a C57BL/6 mouse was euthanized by cervical dislocation, and its spleen was aseptically dissected using sterile techniques. The harvested spleen was placed in a small Petri dish containing 10 ml of ice-cold PBS/FBS, ground using 2 frosted microscope slides, and filtered through a piece of 40 μm nylon material to yield a single cell suspension. Thereafter, the spleen cell suspension was carefully dispensed onto mouse lymphocyte separation medium (TBD Science Inc, Tianjin, China) and the lymphocytes were collected after density gradient centrifugation. After washing and cell counting, cell density was adjusted to 1 million cells/mL with RPMI 1640 (Gibco) plus 10% FCS and 1 μg/mL anti-mouse CD28 (BD PHM). […] After stimulation for 72 hours with anti-CD3 and anti-CD28 monoclonal antibodies, culture supernatants were collected and IL-17A measured with an IL-17A mouse ELISA kit (Thermo Fisher Scientific Inc.) according to the manufacturer's instructions. Cell count and viability were also evaluated with 0.4% trypan blue (Thermo Fisher Scientific Inc.) staining.

[2] = system: TPA-induced psoriasis-like skin hyperplasia; assay: TPA-induced psoriasis-like skin hyperplasia in BALB/c mice; type: in vivo, mouse
Description: Induction of TPA-induced psoriasis-like skin hyperplasia in mice treated with oral 2,4-D. Forty mice (BALB/c) were purchased from Guangdong Experimental Animal Center. All experiments were approved by the animal ethics committee of Guangzhou University of Chinese Medicine according to Chinese legislation on animal experiments. Mice (n=30) at 8 to 11 weeks of age received a daily topical dose of 15 μg TPA (Sigma) in 200 μl of acetone on the shaved back for day 1 and 4. This dose was empirically determined to cause the most optimal and reproducible skin inflammation in mice (data not shown). Control mice (n=10) were treated similarly with a control vehicle cream (Sigma). See FIG. 9 for an illustrative example of a mouse receiving topical TPA as compared to a control mouse receiving a control vehicle cream. Of the 30 mice that received topical TPA, 20 mice were treated orally with 0.2 mg (n=10) or 1 mg (n=10) 2,4-D daily until day 6. The remaining 10 untreated TPA mice served as a disease control. On day 7, dorsal skin was photographed and fixed in 10% formalin and stained with H&E (Haemotoxylin and Eosin). Epidermal thickness was quantified by Image J software.
Statistical analysis. Data are presented as the mean±SD for the in vivo animal study. Statistical analysis was performed using Student's t-test (paired 2-sample testing).

SMILES: COc1cc(O)c(OC)c(O)c1C(=O)/C=C/c1ccccc1 [2,4-D, 2′,4′-dihydroxy-3′,6′-dimethoxychalcone]
- solubility in water (Solubility in water): Low solubility
- decrease of IL-23 expression (IL-23; 1 μg/ml): 8 fold
- inhibition of IL-23 expression (IL-23; 5 μg/ml): 65 fold
- CNV size (surface of lectin positive labelling) [1]: significantly reduced
- production and release of IL-17 in supernatant (IL-17; 1 μg/ml): significantly suppressed
- production and release of IL-17 in supernatant (IL-17; 5 μg/ml): significantly suppressed
- suppression of IL-17 on adding recombinant mouse IL-23 (IL-17; recombinant mouse IL-23 5 ng/ml): completely reversed
- thickness of back skin compared with normal skin of control mice ([2]; 0.2 mg daily oral): significantly higher
- thickness of back skin hyperplasia compared with untreated mice ([2]; 0.2 mg daily oral): significantly lower
- thickness of back skin compared with normal skin of control mice ([2]; 1 mg daily oral): similar
- thickness of back skin hyperplasia compared with untreated mice ([2]; 1 mg daily oral): significantly lower
- dorsal skin compared to mice receiving TPA only ([2]; 0.2 or 1 mg daily oral): improved in a dose-dependent manner
